Assay results taken from patent US6545041B2, “Tumor necrosis factor alpha (TNF-α) inhibiting pharmaceuticals” (Yessum Research Development Co. of the Hebrew University of …, priority 1995, dated 2003).
“And” between values parts separate entries of the source, which are not always exact repeats. Equal values may be shown once. “Also recorded” adds a separate entry of the source.

What was measured:
[1] = cited from earlier work
TNF [2] = assay: Closed head injury (head trauma) model in rats: TNF, edema, clinical outcome; assay type: in vivo, rat; conditions: FIG. 4
From the text: Closed head injury is associated with high mortality and morbidity. It induces edema formation, blood-brain-barrier (BBB) disruption, neuronal cell death and impairment of motor and cognitive functions. Animals subjected to head trauma in a controlled fashion serve as models in which to test drugs of therapeutic potential. Test compounds can be evaluated both for improved clinical outcome and for reduction of edema induced by closed head injury. The ability of compounds to reduce the severity of neurological symptoms and to reduce brain edema is considered a measure of their potency in reducing brain damage.
The effect of HU-211 on TNF production was assessed in a model of head trauma (HT) in rats. Injury was induced in anesthetized rats by a weight-drop device followed by a recovery period of up to 30 days. This type of trauma produces brain edema (i.e. increase in water content, decrease in specific gravity in the brain), breakdown of the blood brain barrier (BBB), clinical and cognitive dysfunction. […]
In this experiment we compared the effects of two agents: 1) pentoxyfilline (PTX), a methylxanthine known for its ability to prevent or attenuate the LPS-induced release of TNF both in vitro and in vivo. […] The levels of TNF were measured after CHI in order to determine whether the beneficial effect of HU-211 is also associated with suppression of TNF production or activity.

TNF [3] = assay: Serum TNF activity (bioassay) and levels (ELISA) in LPS treated mice; assay type: in vivo, mice (C57BL/6); conditions: 100 μg LPS ip with 200 μg/mouse compound, 90 min
Method: An early response to LPS administration is the elevation of serum levels of TNF, which peaks at 1.5-2 hr after LPS administration. Mice treated with LPS serve as a model for the effect of drugs on reducing TNF levels under these conditions.
Serum levels of TNF peak within 1.5 hr following LPS administration, and at this time point, we assessed both TNF activity and levels in the serum.
Mice (C57BL/6) were injected ip with 100 μg LPS, concomitantly with HU-211, HU-210, or HU-245 (200 μg/mouse), and 90 min later they were bled, the sera separated and TNF was assayed for its activity (bioassay) and levels (using ELISA kit).

[4] = Phase I clinical trials, intravenous, healthy human volunteers; assay type: in vivo; conditions: dose ranges contemplated for humans
[5] = Solubility in water / aqueous solutions; assay type: physicochemical
From the text: Among the novel compounds tested, monoesters including nicotinate, succinate and maleate are preferred. Most preferred compounds include the glycinate ester and N-substituted glycinate ester salts, such as the trimethyl- and triethylammonium acetate derivatives of HU-211. These novel compounds have the added advantage of being soluble in some aqueous solutions, whereas the parent compounds are extremely hydrophobic.
(§1) This makes the development of formulations suitable for intravenous administration of HU-211 difficult, hampering its clinical application. Water-soluble derivatives of HU-211 designed to readily release the drug by hydrolysis following i.v. administration might overcome this problem and will be used as prodrugs.

LPS treated mice = assay: Survival of LPS treated mice; assay type: in vivo, BALB/c male mice; conditions: for survival rate / mortality: 24 hours
Method: The effect of HU-211 on the survival of mice, in response to administration of LPS was assessed. The survival was followed up to 48 hr.
Animals are administered with either HU-211 at a dose of 10 mg/kg i.p. or vehicle alone (10 ml/kg i.p.), and 30 minutes later with LPS IV. Two dose levels of LPS were tested in the present study: 10 and 15 mg/kg.
Mortality rate was recorded once a day for 2 days.

[6] = system: D-galactosamine (D-GALN)-sensitized mice; assay: Lethal toxicity by LPS in D-galactosamine-sensitized mice (endotoxic shock); assay type: in vivo, mice (C57BL/6); conditions: for lethality in HU-211 treated group dead/total: LPS 10 ng/mouse + D-GALN, HU-211 7.5 mg/kg plus 8 hourly injections, 24 hrs, exp. no 1-3 and total, controls 20/20, 7.5 mg/kg
Method: The effect of HU-211 in endotoxic shock was assessed in a model of lethal toxicity by lipopolysacharide (LPS) in D-galactosamine (D-GALN)-sensitized mice (Galanos et al. PNAS 76: 5739, 1979, Lehman et al. J. Exp. Med. 165: 657, 1987). In this model 100% mortality occurs within 6-8 hrs of administration of the combined treatment.
LPS (10 ng/mouse) and D-GALN ([…]) were coadministered to 20 mice (C57BL/6). Half of the mice served as controls, and the other were treated within 5 min of injection with HU-211 (7.5 mg/kg body weight), followed by 8 additional injections every hour. The survival was followed up to 24 hrs, and the results of this experiment are depicted in Table 1.

TNF [7] = conditions: rats, 48 hours after HT; cited from earlier work
[8] = system: collagen induced arthritis; assay: Collagen type 2 induced arthritis; assay type: in vivo, CD-1 male mice; conditions: HU-211 20 mg/kg i.p. daily or every 3 days; p<0.01
Method: CD-1 male mice (27-33 gr.), five in each treatment group (supplied by Harlan Israel) were used in the present study. Each animal was administered with collagen type 2 (Sigma, batch no. 111H7180) 100 μg/ml in 0.1 ml complete Freund's adjuvant (Sigma batch no. 084H8800). The collagen was administered s.c. into the base of the tail. The volume of each hind paw was measured using a plathysmometer (Hugo Basill, Italy) before collagen administration and on days 1, 4, 7, 10, 13 and 16 of treatment (30 minutes after drug treatment).
Five treatment groups were tested in the present study: vehicle (blank cosolvent) 10 ml/kg once daily, HU-211 10 mg/kg every three days, HU-211 20 mg/kg once daily, HU-211 20 mg/kg every 3 days and diclofenac 10 mg/kg (10 ml/kg) every 3 days. All treatments were administered intraperitoneally. HU-211 was used from a 5% preparation in cosolvent (Pharmos batch no. PRN-C-08623041), by diluting with saline (B. Braun batch no. 3431A41A) 1:25. The same procedure was performed with blank cosolvent (Pharmos batch no. 608945). Diclofenac was prepared in Pharmos, batch no. LG-121\70 1 mg/ml. At the same time paws were measured they were clinically evaluated according to the following method (Williams R. O., Proc. Natl. Acad. Sci. USA: 89:9784-9788): 0—normal, 1—slight swelling and erythema, 2—pronounced edematous swelling and 3—joint rigidity. […]

[9] = doses far exceeding those contemplated for repression of cytokines; cited from earlier work
EAE = assay: Experimental autoimmune encephalomyelitis (EAE) in Lewis rats; assay type: in vivo; conditions: single iv injection day 10 to 18 post induction, FIG. 6
From the text: Autoimmune diseases are associated with elevated levels of TNF. The models which are most conveniently studied are experimental allergic encephalomyelitis (EAE) and experimental autoimmune arthritis in rodents. EAE is an autoimmune neurological disease elicited by sensitization of the animals to myelin basic protein from the central nervous system, which is also known as basic encephalitogenic protein. EAE is considered by many to represent a model of the human disease multiple sclerosis. Experimental autoimmune arthritis is induced in animals by immunization with collagen in complete Freund's adjuvant. The ability of compounds of the general formula I to prevent or attenuate the clinical symptoms of these autoimmune diseases was tested.
The Lewis rats used were 8 week old females (from OLAC, England). The animals (5 per cage) were maintained on a 12 hour light/12 hour dark regimen, at a constant temperature of 22° C., with food and water ad libitum. EAE was induced in these animals by immunization with purified guinea pig myelin basic protein emulsified in complete Freund's adjuvant. Guinea pig myelin basic protein (mbp) was prepared from spinal cord homogenates defatted with chloroform/ethanol and the isolated protein was purified using ion exchange chromatography. Each animal received 50 micrograms of the purified protein. […]

[10] = Passage of the blood-brain barrier
From the text: as §1

LPS treated rats = assay: LPS-induced hypotension and hematocrit in rats; assay type: in vivo, Sprague Dawley rats
Method: A prominent manifestation of endotoxemia is hypotension, and the effect of a drug on mean arterial blood pressure (MABP) indicates its potency as an anti-endotoxic shock agent. The protective effect of a test compound is evaluated in rats treated with LPS, in which the blood pressure and other vital signs are monitored up to 4 hrs after induction of endotoxemia.
Rats were individually anesthetized with halothane in 70% nitrogen, 30% oxygen. The right femoral artery was catheterized using polyethylene tubes (PE-50, Clay Adams, USA), and connected to a computerized physiograph through a pressure transducer (XTT Vigo, USA). The animals are then connected via a rectal probe to the above physiological recorder. Rectal temperature is kept throughout the study between 37° C. and 38° C., using a heating lamp. Following 10-15 minutes of baseline recording, animals are intravenously administered an injection of saline, vehicle alone or HU-211 at a dose of 4 mg/kg. As soon as possible after completion of the first injection (2-5 minutes later) they are administered an intravenous injection of LPS at a dose of 15 mg/kg (in a volume of 3 ml/kg). Blood pressure and heart rate are recorded for the following 4 hrs. The hematocrit is measured and recorded just prior to drug administration, and 1, 2, and 3 hours later. At the end of the follow up period, animals are sacrificed by deep anesthesia with halothane.

Q: With `CCCCCCC(C)(C)c1cc(O)c2c(c1)OC(C)(C)C1CC=C(CO)CC21` (stereo not shown) [HU-210, 7-hydroxy-Δ^6-tetrahydrocannabinol 1,1-dimethylheptyl homologue, reference compound] as the compound, how does the “cannabimimetic activity relative to Δ-1-tetrahydrocannabinol” value ([1]; in vivo) read?
A: ~100 times

Q: For `CCCCCCC(C)(C)c1cc(O)c2c(c1)OC(C)(C)[C@H]1CC=C(CO)C[C@H]21` [HU-211, (+)-(3S,4S)-1,1-dimethylheptyl homologue of 7-hydroxy-Δ^6-tetrahydrocannabinol], which “brain levels of TNF after CHI, compared with pentoxyfilline” value (TNF [2]) is on record?
A: significantly superior to that of pentoxyfilline

Q: What about the “brain tissue water content (anti-edema effect) after CHI, compared with pentoxyfilline” value (TNF [2]) of the same compound?
A: significantly superior to that of pentoxyfilline

Q: What about the “TNF levels in serum (ELISA)” value (TNF [3]) of the same compound?
A: significantly reduced; also recorded: attenuated the LPS-induced production and action of TNF to a very pronounced extent

Q: What about the “TNF activity (S50) in serum, bioassay” value (TNF [3]; LPS control 1233±237) of the same compound?
A: significantly reduced; also recorded: attenuated the LPS-induced production and action of TNF to a very pronounced extent

Q: And the toxicity or psychoactivity [4]?
A: no evidence of toxicity or psychoactivity

Q: And the “solubility in water / aqueous solutions” value [5]?
A: very poor solubility in water

Q: What about the survival rate (LPS treated mice; LPS 10 mg/kg iv, HU-211 10 mg/kg i.p., vehicle 43%) of the same compound?
A: 91%

Q: And the mortality (LPS treated mice; LPS 10 mg/kg iv, HU-211 10 mg/kg i.p., vehicle 57%)?
A: 9%

Q: And the survival (LPS treated mice; LPS 10 mg/kg iv, HU-211 10 mg/kg i.p., 48 hours, vehicle none survived)?
A: 33%

Q: What about the survival (LPS treated mice; LPS 10 mg/kg iv, HU-211 10 mg/kg i.p., 72 hours post LPS) of the same compound?
A: None of the animals survived

Q: What about the mortality (LPS treated mice; LPS 15 mg/kg iv, HU-211 10 mg/kg i.p. 30 min before, vehicle 67%) of the same compound?
A: 33%

Q: What about the survival rate (LPS treated mice; LPS 15 mg/kg iv, HU-211 10 mg/kg i.p., vehicle 33%) of the same compound?
A: 67%

Q: And the survival (LPS treated mice; LPS 15 mg/kg iv, HU-211 10 mg/kg i.p., 48 hours)?
A: none of the animals survived

Q: And the “lethality in HU-211 treated group dead/total” value [6]?
A: 1/5 and 1/10 and 0/5

Q: What about the “lethality in HU-211 treated group dead/total” value ([6]; pooled total of all experiments) of the same compound?
A: 2/20

Q: What about the survival ([6]; LPS + D-GALN mice, HU-211 7.5 mg/kg, total of experiments, controls 0%) of the same compound?
A: 90%

Q: And the “edema and clinical outcome after head trauma” value (TNF [7])?
A: reduced edema and improved the clinical outcome

Q: What about the cannabimimetic activity ([1]; doses several thousand times higher than the ED50 of HU-210) of the same compound?
A: inactive as a cannabimimetic

Q: And the “clinical signs of arthritis (swelling of the paws)” value [8]?
A: lowest number of these signs

Q: What about the “stereotypy and locomotor hyperactivity” value [9] of the same compound?
A: induction of stereotypy and locomotor hyperactivity

Q: And the mean clinical score (EAE)?
A: diminution of mean clinical score

Q: What about the “passage of the blood-brain barrier” value [10] of the same compound?
A: readily passes the blood-brain barrier

Q: And the “time post-LPS at which normotension was regained” value (LPS treated rats; HU-211 treated rats)?
A: ≤ 30 min

Q: And the “duration of transient hypotension” value (LPS treated rats; HU-211 treated rats, evident 10 minutes after LPS)?
A: 5 to 10 min

Q: What about the “LPS-induced increase in hematocrit” value (LPS treated rats; rats, HU-211 iv 2-3 minutes before LPS, LPS alone about 10% increase) of the same compound?
A: prevented

Q: What about the “LPS-induced drop in mean arterial blood pressure (MABP)” value (LPS treated rats; rats, LPS 15 mg/kg iv, HU-211 4 mg/kg iv pre-administration, LPS alone around 30% reduction) of the same compound?
A: abolished

Q: For `CCCCCCC(C)(C)c1cc(O)c2c(c1)OC(C)(C)C1CC=C(C(=O)O)CC21` (stereo not shown) [HU-245], which “TNF levels in serum (ELISA)” value (TNF [3]) is on record?
A: significantly reduced
